Tested on: 958667-338-R-J2-PDC tumor spheroids viability
Experiment: Anticancer human tumor 958667-338-R-J2-PDC patient-derived colon adenocarcinoma cell line growth inhibition [PI3K]
Settings: spheroids with HUVEC and MSC; for IC50: curve of first compound; for viability, T/C: stronger effect = lower value
Outline: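 Tumor cells were combined with HUVEC and MSCs into spheroids, then dosed with PI3K-inhibitor combinations over half-log ranges capped near clinical Cmax or 10 microM.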

[1] = second compound 0.0316 µM, first compound 0.000316 µM
[2] = second compound 0.0316 µM, first compound 0.001 µM
[3] = second compound 0.0316 µM, first compound 0.00316 µM
[4] = second compound 0.0316 µM, first compound 0.01 µM
[5] = second compound 0.0316 µM, first compound 0.0316 µM
[6] = second compound 0.0316 µM, first compound 0.1 µM
[7] = second compound 0.1 µM, first compound 0.000316 µM
[8] = second compound 0.1 µM, first compound 0.001 µM
[9] = second compound 0.1 µM, first compound 0.00316 µM
[10] = second compound 0.1 µM, first compound 0.01 µM
[11] = second compound 0.1 µM, first compound 0.0316 µM
[12] = second compound 0.1 µM, first compound 0.1 µM
[13] = second compound 0.316 µM, first compound 0.000316 µM
[14] = second compound 0.316 µM, first compound 0.001 µM
[15] = second compound 0.316 µM, first compound 0.00316 µM
[16] = second compound 0.316 µM, first compound 0.01 µM
[17] = second compound 0.316 µM, first compound 0.0316 µM
[18] = second compound 0.316 µM, first compound 0.1 µM
[19] = second compound 1 µM, first compound 0.000316 µM
[20] = second compound 1 µM, first compound 0.001 µM
[21] = second compound 1 µM, first compound 0.00316 µM
[22] = second compound 1 µM, first compound 0.01 µM
[23] = second compound 1 µM, first compound 0.0316 µM
[24] = second compound 1 µM, first compound 0.1 µM
[25] = second compound 3.16 µM, first compound 0.000316 µM
[26] = second compound 3.16 µM, first compound 0.001 µM
[27] = second compound 3.16 µM, first compound 0.00316 µM
[28] = second compound 3.16 µM, first compound 0.01 µM
[29] = second compound 3.16 µM, first compound 0.0316 µM
[30] = second compound 3.16 µM, first compound 0.1 µM
[31] = second compound 10 µM, first compound 0.000316 µM
[32] = second compound 10 µM, first compound 0.001 µM
[33] = second compound 10 µM, first compound 0.00316 µM
[34] = second compound 10 µM, first compound 0.01 µM
[35] = second compound 10 µM, first compound 0.0316 µM
[36] = second compound 10 µM, first compound 0.1 µM
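Also: spheroids exposed to compounds for seven days before readout.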

## CC(=O)c1c(C)c2cnc(Nc3ccc(N4CCNCC4)cn3)nc2n(C2CCCC2)c1=O + Cc1nc(NC(=O)N2CCCC2C(N)=O)sc1-c1ccnc(C(C)(C)C(F)(F)F)c1
Second compound 0.0316 µM
  IC50: > 100 nM
Second compound 0.1 µM
  IC50: > 100 nM
Second compound 0.316 µM
  IC50: > 100 nM
Second compound 1 µM
  IC50: > 100 nM
Second compound 3.16 µM
  IC50: > 100 nM
Second compound 10 µM
  IC50: > 100 nM
[1]
  viability, T/C: 104%
[2]
  viability, T/C: 77.1%
[3]
  viability, T/C: 96%
[4]
  viability, T/C: 94.3%
[5]
  viability, T/C: 95.8%
[6]
  viability, T/C: 73.7%
[7]
  viability, T/C: 97.2%
[8]
  viability, T/C: 96.8%
[9]
  viability, T/C: 106%
[10]
  viability, T/C: 88.7%
[11]
  viability, T/C: 103%
[12]
  viability, T/C: 94.7%
[13]
  viability, T/C: 104%
[14]
  viability, T/C: 83.1%
[15]
  viability, T/C: 84.4%
[16]
  viability, T/C: 91.5%
[17]
  viability, T/C: 78.1%
[18]
  viability, T/C: 73.7%
[19]
  viability, T/C: 87.8%
[20]
  viability, T/C: 78.5%
[21]
  viability, T/C: 73.4%
[22]
  viability, T/C: 62.2%
[23]
  viability, T/C: 74.5%
[24]
  viability, T/C: 66.2%
[25]
  viability, T/C: 72%
[26]
  viability, T/C: 74%
[27]
  viability, T/C: 59.3%
[28]
  viability, T/C: 67.2%
[29]
  viability, T/C: 70.3%
[30]
  viability, T/C: 71.9%
[31]
  viability, T/C: 52.8%
[32]
  viability, T/C: 55.5%
[33]
  viability, T/C: 52.2%
[34]
  viability, T/C: 55.4%
[35]
  viability, T/C: 51.4%
[36]
  viability, T/C: 58.5%

## CC(C)n1nc(-c2ccc3oc(N)nc3c2)c2c(N)ncnc21 + Cc1nc(NC(=O)N2CCCC2C(N)=O)sc1-c1ccnc(C(C)(C)C(F)(F)F)c1
Second compound 0.0316 µM
  IC50: 61.7 nM
Second compound 0.1 µM
  IC50: 60.6 nM
Second compound 0.316 µM
  IC50: 59.5 nM
Second compound 1 µM
  IC50: 41.9 nM
Second compound 3.16 µM
  IC50: 30.2 nM
Second compound 10 µM
  IC50: 2.2 nM
[1]
  viability, T/C: 94%
[2]
  viability, T/C: 91.7%
[3]
  viability, T/C: 80.9%
[4]
  viability, T/C: 77.8%
[5]
  viability, T/C: 61.1%
[6]
  viability, T/C: 41.4%
[7]
  viability, T/C: 102%
[8]
  viability, T/C: 85.8%
[9]
  viability, T/C: 108%
[10]
  viability, T/C: 73.7%
[11]
  viability, T/C: 76.5%
[12]
  viability, T/C: 33.1%
[13]
  viability, T/C: 77.3%
[14]
  viability, T/C: 89.3%
[15]
  viability, T/C: 80.5%
[16]
  viability, T/C: 82.2%
[17]
  viability, T/C: 71.5%
[18]
  viability, T/C: 32%
[19]
  viability, T/C: 70%
[20]
  viability, T/C: 68.1%
[21]
  viability, T/C: 74.5%
[22]
  viability, T/C: 79%
[23]
  viability, T/C: 56%
[24]
  viability, T/C: 31.4%
[25]
  viability, T/C: 72%
[26]
  viability, T/C: 73.8%
[27]
  viability, T/C: 73.2%
[28]
  viability, T/C: 57.5%
[29]
  viability, T/C: 52%
[30]
  viability, T/C: 24.3%
[31]
  viability, T/C: 56%
[32]
  viability, T/C: 51.5%
[33]
  viability, T/C: 39.8%
[34]
  viability, T/C: 52.9%
[35]
  viability, T/C: 34.3%
[36]
  viability, T/C: 21.1%
